Experimental findings from US20080275085A1, “Piperidine derivative and use thereof” (priority 2007, published 2008) are described below.

This assay deals with T1, substance P receptor (Homo sapiens, UniProt P25103).
T1 construct: The receptor was prepared from human lymphoblast cells (IM-9); endogenous in cells; host or cells: IM-9 human lymphoblast cells (membrane fraction, 100,000xG precipitate)
Description: Radioligand receptor binding inhibitory activity (125I-BHSP binding, receptor from IM-9 cells). The note with it: receptor from human lymphoblast cells (IM-9); radioligand 125I-BHSP; 25° C., 30 min. The protocol: Radioligand Receptor Binding Inhibitory Activity (Binding Inhibitory Activity Using Receptor from Human Lymphoblast Cells (IM-9))
The method of M. A. Cascieri et al., “Molecular Pharmacology, vol. 42, p. 458 (1992)” was modified and used. The receptor was prepared from human lymphoblast cells (IM-9).
IM-9 cells (2×10^5 cells/mL) were inoculated and incubated for 3 days, which was then subjected to centrifugation for 10 min. at 500×G to give cell pellets. The obtained pellets were washed with PBS (GIBCO), disrupted in buffer A (50 mM tris.hydrochloric acid buffer (pH 7.4) containing 120 mM sodium chloride, 5 mM potassium chloride, 2 μg/mL chymostatin, 40 μg/mL bacitracin, 40 μg/mL APMSF, 1 mM ethylenediamine tetra acetic acid) using a polytron.homogenizer [manufactured by Kinematika, Germany], and centrifuged at 100,000×G for 40 min. The precipitated fraction was suspended in buffer B (50 mM Tris-HCl (pH 7.4), 0.02% bovine serum albumin, 2 μg/mL chymostatin, 40 μg/mL bacitracin, 40 μg/mL APMSF, 3 mM MgCl2), which was then cryopreserved (−80° C.) as a receptor specimen.
Buffer B (50 μL) was added to a 96 well microassay plate (CORNING). Thereto was added 50 μL of membrane preparation suspended in buffer B at 250 μg/mL. A measurement buffer (50 μL) containing 2% dimethyl sulfoxide was added to examine total binding; 4 μM unlabeled SP (50 μL) diluted with a measurement buffer containing 2% dimethyl sulfoxide was added to examine non-specific binding; and 50 μL of a test compound (containing 2% dimethyl sulfoxide) diluted with a measurement buffer was added to examine binding inhibitory activity of the test compound. In addition, […] ^125I-BHSP solution (50 μL) was added to each well.
After reaction at 25° C. for 30 min, the cells were rapidly filtered through a GF/C filter plate (PerkinElmer) using a cell harvester (manufactured by PerkinElmer) to quench the reaction, and washed 10 times with 250 μL of 50 mM tris-HCl buffer (pH 7.4) containing 0.02% bovine serum albumin. The GF/C filter plate was dried, MicroScinti 0 (20 μL) was added, and the radioactivity was measured with TopCount (manufactured by PerkinElmer). The GF/C filter plate was immersed in 0.3% polyethylene imine for one day before use.
Specific binding is a value obtained by subtracting nonspecific binding from total binding. The binding inhibitory activity of a test compound is shown by a ratio of a value obtained by subtracting a measurement value with addition of a test compound from the total binding, relative to specific binding.
The antagonistic activity of the compounds obtained in the Examples was determined as a concentration necessary for causing 50% inhibition (IC50 value) under the above-described conditions, and the results shown in Table 34 were obtained.
The radio ligand means substance P labeled with [^125I].

Each structure is given as a SMILES string. Where a name gives a salt, the structure may show the parent alone.

T1 sequence (P25103 whole entry): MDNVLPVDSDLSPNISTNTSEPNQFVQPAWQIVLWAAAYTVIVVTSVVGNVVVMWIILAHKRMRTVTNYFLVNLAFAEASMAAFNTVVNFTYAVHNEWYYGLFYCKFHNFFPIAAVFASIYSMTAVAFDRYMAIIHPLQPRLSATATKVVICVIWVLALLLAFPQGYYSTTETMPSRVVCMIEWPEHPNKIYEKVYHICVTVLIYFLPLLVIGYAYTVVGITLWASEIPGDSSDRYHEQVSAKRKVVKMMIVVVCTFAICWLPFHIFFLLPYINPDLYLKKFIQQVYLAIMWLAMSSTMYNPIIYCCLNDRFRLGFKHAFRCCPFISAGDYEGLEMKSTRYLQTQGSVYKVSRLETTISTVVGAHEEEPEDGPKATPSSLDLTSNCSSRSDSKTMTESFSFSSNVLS

`Cc1cc(F)ccc1[C@@H]1CN(CC(=O)NC2CC2)CC[C@H]1C(=O)N(C)Cc1cc(C(F)(F)F)cc(C(F)(F)F)c1` (relative stereo) [Example 103, (3R*,4R*)—N-[3,5-bis(trifluoromethyl)benzyl]-1-[2-(cyclopropylamino)-2-oxoethyl]-3-(4-fluoro-2-methylphenyl)-N-methylpiperidine-4-carboxamide monohydrochloride] registered a 50% inhibitory concentration (IC50) of 0.096 nM.

With `Cc1cc(F)ccc1[C@@H]1CN(CC(=O)N2CCC(O)CC2)CC[C@H]1C(=O)N(C)Cc1cc(C(F)(F)F)cc(C(F)(F)F)c1` (relative stereo) [Example 104, (3R*,4R*)—N-[3,5-bis(trifluoromethyl)benzyl]-3-(4-fluoro-2-methylphenyl)-1-[2-(4-hydroxypiperidin-1-yl)-2-oxoethyl]-N-methylpiperidine-4-carboxamide monohydrochloride], the IC50 was found to be 0.042 nM.

`Cc1cc(F)ccc1[C@@H]1CN(C2CCN(C(=O)C(N)=O)CC2)CC[C@H]1C(=O)N(C)Cc1cc(C(F)(F)F)cc(C(F)(F)F)c1` (relative stereo) [Example 108, (3R*,4R*)-1′-[amino(oxo)acetyl]-N-[3,5-bis(trifluoromethyl)benzyl]-3-(4-fluoro-2-methylphenyl)-N-methyl-1,4′-bipiperidine-4-carboxamide monohydrochloride] gave an IC50 of 0.026 nM.

The molecule `Cc1cc(F)ccc1[C@@H]1CN(C2CCN(C(N)=O)CC2)CC[C@H]1C(=O)N(C)Cc1cc(C(F)(F)F)cc(C(F)(F)F)c1` (relative stereo) [Example 109, (3R*,4R*)—N^4-[3,5-bis(trifluoromethyl)benzyl]-3-(4-fluoro-2-methylphenyl)-N^4-methyl-1,4′-bipiperidine-1′,4-dicarboxamide monohydrochloride] yielded an IC50 of 0.023 nM.

The molecule `Cc1cc(F)ccc1[C@@H]1CN(CC(N)=O)CC[C@H]1C(=O)N(C)Cc1cc(C(F)(F)F)cc(C(F)(F)F)c1` (relative stereo) [Example 112, (3R*,4R*)-1-(2-amino-2-oxoethyl)-N-[3,5-bis(trifluoromethyl)benzyl]-3-(4-fluoro-2-methylphenyl)-N-methylpiperidine-4-carboxamide monohydrochloride] returned an IC50 of 0.038 nM.

Molecule `Cc1cc(F)ccc1[C@@H]1CN(C(C)(C)C(N)=O)CC[C@H]1C(=O)N(C)Cc1cc(C(F)(F)F)cc(C(F)(F)F)c1` (relative stereo) [Example 113, (3R*,4R*)-1-(2-amino-1,1-dimethyl-2-oxoethyl)-N-[3,5-bis(trifluoromethyl)benzyl]-3-(4-fluoro-2-methylphenyl)-N-methylpiperidine-4-carboxamide monohydrochloride] yielded an IC50 of 0.061 nM.

`Cc1cc(F)ccc1[C@@H]1CN(C(C)CO)CC[C@H]1C(=O)N(C)Cc1cc(C(F)(F)F)cc(C(F)(F)F)c1` (relative stereo) [Example 120, (3R*,4R*)—N-[3,5-bis(trifluoromethyl)benzyl]-3-(4-fluoro-2-methylphenyl)-1-(2-hydroxy-1-methylethyl)-N-methylpiperidine-4-carboxamide monohydrochloride] returned an IC50 of 0.043 nM.

`Cc1cc(F)ccc1[C@@H]1CN(CCC(C)(C)O)CC[C@H]1C(=O)N(C)Cc1cc(C(F)(F)F)cc(C(F)(F)F)c1` (relative stereo) [Example 123, (3R*,4R*)—N-[3,5-bis(trifluoromethyl)benzyl]-3-(4-fluoro-2-methylphenyl)-1-(3-hydroxy-3-methylbutyl)-N-methylpiperidine-4-carboxamide monohydrochloride]: the IC50 worked out at 0.025 nM.

Consider `CC(=O)Nc1ccc(N2CC[C@@H](C(=O)N(C)Cc3cc(C(F)(F)F)cc(C(F)(F)F)c3)[C@H](c3ccc(F)cc3C)C2)nc1` (relative stereo) [Example 129, (3R*,4R*)-1-[5-(acetylamino)pyridin-2-yl]-N-[3,5-bis(trifluoromethyl)benzyl]-3-(4-fluoro-2-methylphenyl)-N-methylpiperidine-4-carboxamide monohydrochloride], for which the half-maximal inhibitory concentration (IC50) worked out at 0.095 nM.

In turn, `Cc1cc(F)ccc1[C@@H]1CN(S(=O)(=O)CCN2CCOCC2)CC[C@H]1C(=O)N(C)Cc1cc(C(F)(F)F)cc(C(F)(F)F)c1` (relative stereo) [Example 139, (3R*,4R*)—N-[3,5-bis(trifluoromethyl)benzyl]-3-(4-fluoro-2-methylphenyl)-N-methyl-1-[(2-morpholin-4-ylethyl)sulfonyl]piperidine-4-carboxamide monohydrochloride] returned a half-inhibitory concentration (IC50) of 0.037 nM.

`Cc1cc(F)ccc1[C@@H]1CN(CC(N)=O)CC[C@H]1C(=O)N(Cc1cc(C(F)(F)F)cc(C(F)(F)F)c1)C1CC1` (relative stereo) [Example 169, (3R*,4R*)-1-(2-amino-2-oxoethyl)-N-[3,5-bis(trifluoromethyl)benzyl]-N-cyclopropyl-3-(4-fluoro-2-methylphenyl)piperidine-4-carboxamide monohydrochloride] returned an IC50 of 0.077 nM.

On to `Cc1ccsc1C1CN(C(=O)C2CCN(C(=O)CO)CC2)CCC1C(=O)N(C)[C@@H](C)c1cc(C(F)(F)F)cc(C(F)(F)F)c1` (single isomer, unassigned; more polar) [Example 176, (3R*,4S*)—N-{(1S)-1-[3,5-bis(trifluoromethyl)phenyl]ethyl}-1-[(1-glycoloylpiperidin-4-yl)carbonyl]-N-methyl-3-(3-methyl-2-thienyl)piperidine-4-carboxamide (more polar)], for which the IC50 was 0.051 nM.

As to `Cc1ccccc1[C@H]1CN(C(=O)C2CCN(C(=O)CO)CC2)CC[C@@H]1C(=O)N(C)Cc1cc(C(F)(F)F)cc(C(F)(F)F)c1` [Example 18, (3S,4S)—N-[3,5-bis(trifluoromethyl)benzyl]-1-[[1-glycoloylpiperidin-4-yl]carbonyl]-N-methyl-3-(2-methylphenyl)piperidine-4-carboxamide], the IC50 was 0.024 nM.

As for `Cc1ccccc1[C@H]1CN(C(=O)C2CCN(C(=O)[C@H](C)O)CC2)CC[C@@H]1C(=O)N(C)Cc1cc(C(F)(F)F)cc(C(F)(F)F)c1` [Example 28, (3S,4S)—N-(3,5-bis(trifluoromethyl)benzyl]-1-({1-[(2S)-2-hydroxypropanoyl]piperidin-4-yl}carbonyl)-N-methyl-3-(2-methylphenyl)piperidine-4-carboxamide], the concentration for half-maximal inhibition (IC50) stood at 0.022 nM.

With `Cc1ccccc1[C@H]1CN(C(=O)C2CCN(C(=O)[C@@H](C)O)CC2)CC[C@@H]1C(=O)N(C)Cc1cc(C(F)(F)F)cc(C(F)(F)F)c1` [Example 29, (3S,4S)—N-[3,5-bis(trifluoromethyl)benzyl]-1-({1-[(2R)-2-hydroxypropanoyl]piperidin-4-yl}carbonyl)-N-methyl-3-(2-methylphenyl)piperidine-4-carboxamide], the IC50 came out at 0.023 nM.

`Cc1ccccc1[C@H]1CN(C(=O)CN2C(=O)OC(C)(C)C2=O)CC[C@@H]1C(=O)N(C)[C@@H](C)c1cc(C(F)(F)F)cc(C(F)(F)F)c1` [Example 30, (3S,4S)—N-{(1S)-1-[3,5-bis(trifluoromethyl)phenyl]ethyl}-1-[(5,5-dimethyl-2,4-dioxo-1,3-oxazolidin-3-yl)acetyl]-N-methyl-3-(2-methylphenyl)piperidine-4-carboxamide] came in with a half-inhibitory concentration (IC50) of 0.057 nM.

As usually defined, the IC50 is the point on the concentration scale where inhibition reaches its midpoint.
